Assay results as given in patent publication US20140349922A1 (priority 2011, published 2014).

Columns and labels:
[1] = DIO mice, fasting glucose and fasting insulin after single dose, experiment #2 (Example 7); format: in vivo; conditions: experiment #2, day 2; PEG-OXM single SC 6000 nmol/kg; Liraglutide 200 μg/kg bid
Method: (§1) On the morning of day 1 the mice were dosed followed by an overnight fasting. On days 2, 24 h following administration (groups A-E) or prior to the morning dosing (groups F-H), the mice were sampled for fasting glucose and fasting insulin.
The second experiment included 7 groups (n=7) of DIO mice that were dosed for 2 days as follows: […]

[2] = DIO mice, fasting glucose and fasting insulin after single dose, experiment #1 (Example 7); format: in vivo; conditions: experiment #1, day 2
Method: as §1
In this set of experiments two independent in vivo studies were carried out. The first experiment included 8 groups (n=8) of DIO mice that were dosed for 2 days as follows: […]

[3] = Diet-induced obesity mice model, Study 1: body weight and food intake; format: in vivo, C57BL/6J mice; conditions: SC, 7 days dosing, OXM 5000 nmol/kg b.i.d; for Body weight loss on Day 8 compared to control group: PEG40-FMS-OXM 5000 nmol/kg Days 1, 3, 5, 7, Sibutramine 20 mg/kg b.i.d
Method: Data are adjusted means (n=10). SEMs are calculated from the residuals of the statistical model. Mice were dosed for 7 days started on Day 1. […] Significant differences vs. appropriate vehicle: *p<0.05, **p<0.01, ***p<0.001. Percentage values indicate difference from appropriate vehicle group on Day 8 (i.e. after 7 days dosing).
Measurements of body weight and food intake were performed daily until Day 8. The final measurement of body weight was carried out on Day 12.
Body weight and food intake are expressed as mean values±SEM.

[4] = IP glucose tolerance test (IPGTT); format: in vivo, C57BL/6 mice; conditions: OXM and PEG40-EMCS-OXM 333 nmol/kg 15 min before glucose, PEG40-Fmoc-OXM […] peptide content 2 hrs before, vs vehicle
Method: Blood glucose levels were measured by tail vein sampling prior to glucose administration and 10, 20, 30, 60 and 120 min after glucose administration using a handheld glucometer.
Blood glucose levels were measured by tail vein sampling prior to glucose administration and 10, 20, 30, 60 and 120 min after to glucose administration using a handheld glucometer.

[5] = target: CHO-K1 cells over-expressing GLP-1 receptor (Homo sapiens, UniProt P43220); conditions: rat serum 1%
Method: Cells cAMP concentrations were quantified by HTRF assay (Cisbio 62AM4PEB) and EC50 parameter was analyzed by PRISM software.
Cells' cAMP concentrations were quantified by HTRF assay (Cisbio 62AM4PEB), and the EC50 parameter was analyzed by PRISM software.

[6] = DIO mouse model, 29 days dosing (Example 6): body weight; format: in vivo, C57BL/6J mice; conditions: SC 6,000 nmol/kg; PEG conjugates weekly, native OXM twice per day
[7] = single SC 6,000 nmol/kg (OXM b.i.d)

CHO-K1 cells over-expressing GLP-1 receptor, sequence (P43220 24-463): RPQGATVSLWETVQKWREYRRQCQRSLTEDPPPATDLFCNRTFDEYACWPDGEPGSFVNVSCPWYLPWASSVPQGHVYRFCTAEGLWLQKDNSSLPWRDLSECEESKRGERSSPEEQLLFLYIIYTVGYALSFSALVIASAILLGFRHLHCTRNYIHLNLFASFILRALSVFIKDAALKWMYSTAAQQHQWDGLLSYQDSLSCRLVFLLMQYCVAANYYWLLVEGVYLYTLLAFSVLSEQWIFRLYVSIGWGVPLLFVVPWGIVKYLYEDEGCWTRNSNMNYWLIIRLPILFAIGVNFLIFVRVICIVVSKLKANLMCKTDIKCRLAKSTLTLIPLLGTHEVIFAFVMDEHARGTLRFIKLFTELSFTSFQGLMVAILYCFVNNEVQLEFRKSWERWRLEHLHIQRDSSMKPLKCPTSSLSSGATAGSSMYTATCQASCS

Row | Compound | Fasted plasma insulin level [1] | Fasting glucose level [1] | Fasting glucose level ([2]; PEG-OXM single SC 6,000 nmol/kg on day 1, Liraglutide 200 μg/kg b.i.d) | Fasted plasma insulin level ([2]; PEG-OXM single SC 6,000 nmol/kg, Liraglutide 200 μg/kg b.i.d) | Body weight loss on Day 8 compared to control group [3] | Induction of glucose tolerance (blood glucose after IP glucose 1.5 gr/kg) [4] | Inhibition of food intake ([3]; PEG40-FMS-OXM 5000 nmol/kg every other day) | cAMP activity after incubation in rat serum versus without serum [5] | Weight loss during a 30-day period [6] | Fasting glucose compared to vehicle [2, 7] | Fasting plasma insulin compared to controls [2, 7]
1 | CCCCCCCCCCCCCCCC(=O)N[C@@H](CCC(=O)NCCCC[C@H](NC(=O)[C@H](C)NC(=O)[C@H](C)NC(=O)[C@H](CCC(N)=O)NC(=O)CNC(=O)[C@H](CCC(=O)O)NC(=O)[C@H](CC(C)C)NC(=O)[C@H](Cc1ccc(O)cc1)NC(=O)[C@H](CO)NC(=O)[C@H](CO)NC(=O)[C@@H](NC(=O)[C@H](CC(=O)O)NC(=O)[C@H](CO)NC(=O)[C@@H](NC(=O)[C@H](Cc1ccccc1)NC(=O)[C@@H](NC(=O)CNC(=O)[C@H](CCC(=O)O)NC(=O)[C@H](C)NC(=O)[C@@H](N)Cc1cnc[nH]1)[C@@H](C)O)[C@@H](C)O)C(C)C)C(=O)N[C@@H](CCC(=O)O)C(=O)N[C@@H](Cc1ccccc1)C(=O)N[C@H](C(=O)N[C@@H](C)C(=O)N[C@@H](Cc1c[nH]c2ccccc12)C(=O)N[C@@H](CC(C)C)C(=O)N[C@H](C(=O)N[C@@H](CCCNC(=N)N)C(=O)NCC(=O)N[C@@H](CCCNC(=N)N)C(=O)NCC(=O)O)C(C)C)[C@@H](C)CC)C(=O)O [Liraglutide] | 3 ng/mL | 6.7 mM | 6.06 mM | 4.4 ng/mL | – | – | – | – | – | – | –
2 | CC(C)CC(N(C)C)C1(c2ccc(Cl)cc2)CCC1 (stereo not drawn) [Sibutramine] | – | – | – | – | 15.6% | – | – | – | – | – | –
3 | Oxyntomodulin [OXM] | – | – | – | – | 6% | minor effect on the glucose tolerance | statistically significant inhibition of food intake | reduced activity | 17% | did not show any significant difference | did not show any significant difference
